In patent US5721366A, “Platelet aggregation inhibitors” (G. D. Searle & Co, priority 1995, dated 1998):
Structures can show the parent of a compound that is named as a salt.

What was measured:
[1] = tested on: Human platelet aggregation (platelet-rich plasma); test: Inhibition of Human Platelet Aggregation (PRP), collagen-induced; format: cell-based; settings: collagen-induced aggregation (4 μg/ml final), 37° C.
Method: Inhibition of Human Platelet Aggregation (PRP)
Platelet rich plasma was prepared from citrated whole blood (3.8% Na citrate, 1:10 in 30 ml blood) withdrawn from the antecubital vein (n=1). PRP was prepared by centrifugation (Sorvall RC3C, DuPont, Wilmington, Del.) of the whole blood at 1000×g for 3 min, allowing the centrifuge to stop without braking. Platelet poor plasma (PPP) was prepared by centrifugation of PRP at 2000×g for 10 min. […] Aggregation was measured in a 4 channel aggregometer (model PAP-4C, Bio/Data Corp., Hatboro, Pa.). Aliquots of PPP were used to standardize the aggregometer for measurement of maximum light transmission. Platelet aggregation was measured as an increase in light transmission.
PRP (430 μl aliquot) was preincubated with 50 μl of various concentrations of compound (dissolved in 10% ETOH/water at a concentration of 10^-3 M. Compounds were diluted to desired concentration with 0.9% NaCl) for 2 min at 37° C., with stirring at 900 rpm, in the aggregometer. The stock collagen (Chronolog, Havertown, Pa., equine tendon) was diluted 1:10 with a 5% dextrose and water solution. The vehicle control response was obtained by adding 20 μl diluted collagen to the untreated aliquot of PRP+50 μl saline. Final collagen concentration was 4 μg/ml. Aggregation was recorded for 3 min following the addition of collagen. […] Percent inhibition was calculated by comparing treated and control samples. IC50 's were calculated graphically from dose-response curves. Average values and standard errors were calculated using the IC50 's of the individual experiments. Statistical analyses were done by an unequal variance, unpaired Student's t-test [Minitab Reference Manual, Minitab Inc., State College, Pa. (1988)]. Statistical significance was assumed when p<0.05 was found.
(§1) (NT in the following table indicates not tested.)

[2] = tested on: Dog platelet aggregation (platelet-rich plasma); test: In-Vitro Platelet Aggregation in PRP (Dog), collagen-induced; format: cell-based; settings: for IC50: collagen-induced aggregation (33 μg/ml final), 37° C.; for inhibition at 1 µM: collagen-induced aggregation
Method: In-Vitro Platelet Aggregation in PRP--(Dog)
Healthy male or female dogs were fasted for 8 hours prior to drawing blood; then 60 ml whole blood was collected using a butterfly needle and 30 cc plastic syringe with 6 ml of 0.129M buffered sodium citrate (3.8%) (drawn from a minimum of 3 dogs and blood was pooled). The syringe was rotated carefully as blood was drawn to mix the citrate. Platelet-rich plasma (PRP) was prepared by centrifugation at 975×g for 3.17 minutes at room temperature, allowing the centrifuge to coast to a stop without braking. The PRP was removed from the blood with a plastic pipette and placed in a plastic capped 50 ml Corning conical sterile centrifuge tube which was held at room temperature. Platelet poor plasma (PPP) was prepared by centrifuging the remaining blood at 2000×g for 15 minutes at room temperature allowing the centrifuge to coast to a stop without braking. The platelet count in the PRP was routinely 2-4×10^8 platelets per ml. 400 μl of the PRP preparation and 50 μl of the compound to be tested or saline were preincubated for 2 minutes at 37° C. in a BioData aggregometer (BioData, Horsham, Pa.). 50 μl of collagen (diluted 1:3 with 5% dextrose and water solution, 33 μg/ml final concentration, equine tendon, Chronolog, Havertown, Pa.) was added to the cuvettes and the aggregation was monitored for 3 minutes. All compounds are tested in duplicate.
Results are calculated as follows:
Percent of control=[(maximal OD minus initial OD of compound) divided by (maximal OD minus initial OD of control saline)]×100. The % inhibition=100-(percent of control).
as §1

[3] = Canis lupus familiaris, Platelet

Molecule: C=C[C@H](CC(=O)O)NC(=O)CC1CCN(c2ccc(C(=N)N)cc2)C1=O (single isomer, unassigned; isomer a) [Example 4, 3S-[[[1-[4-(aminoiminomethyl)phenyl]-2-oxo-3-pyrrolidinyl]acetyl]amino]-4-pentenoic acid, monohydrochloride, enantiomerically enriched isomer A.]
- IC50 [1]: 55 nM
- IC50 [2]: 52 nM

Molecule: C#C[C@H](CC(=O)O)NC(=O)CC1CCN(c2ccc(C(=N)N)cc2)C1=O (stereo partly drawn) [Example 14, 3(S) -[[[1-[4-(aminoiminomethyl)phenyl]-2-oxo-3-pyrrolidinyl]acetyl]amino]-4-pentynoic acid]
- IC50 [2, 3]: 120 nM

Molecule: N=C(N)c1ccc(N2CCC(CC(=O)NC(CC(=O)O)c3ccoc3)C2=O)cc1 (single isomer, unassigned) [Example 51]
- IC50 [2, 3]: 50 nM

Molecule: C[C@@H](CCCC1CCN(c2ccc(C(=N)N)cc2)C1=O)CC(=O)O (stereo partly shown) [Example 19, 1-[4-(aminoiminomethyl)phenyl]-βS-methyl-2-oxo-3-pyrrolidinehexanoic acid, monohydrochloride.]
- IC50 ([1]; Homo sapiens, Platelet): 90 nM
- IC50 [2, 3]: 150 nM

Molecule: C=C[C@H](CC(=O)O)NC(=O)NC1CCN(c2ccc(C(=N)N)cc2)C1=O (stereo partly drawn) [Example 18, 3(S)-[[[[1-[4-(aminoiminomethyl]phenyl]-2-oxo-3-pyrrolidinyl]amino]carbonyl]amino]-4-pentenoic acid]
- IC50 ([1]; Homo sapiens, Platelet): 100 nM
- IC50 [2, 3]: 170 nM

Molecule: C=C[C@H](CC(=O)O)NC(=O)CC1CCCN(c2ccc(C(=N)N)cc2)C1=O (single isomer, unassigned; isomer b) [Example 34L]
- IC50 [2, 3]: 59 nM

Molecule: 3[S]-[[[[1-[4-(aminoiminomethyl)phenyl]-2-oxo-3-pyrrolidinyl]amino]carbonyl]amino]benzenepropanoic acid trifluoroacetate. Enantiomerically Enriched Isomer B [Example 47]
- IC50 [2]: 62 nM

Molecule: C#C[C@H](CC(=O)O)NC(=O)CC1CCCN(c2ccc(C(=N)N)cc2)C1=O (single isomer, unassigned; isomer b) [Example 34N]
- IC50 [2, 3]: 59 nM

Molecule: N=C(N)c1ccc(N2CCC(NC(=O)NC[C@H](NC(=O)OCc3ccccc3)C(=O)O)C2=O)cc1 (single isomer, unassigned; isomer b) [Example 49]
- IC50 [2, 3]: 54 nM

Molecule: N=C(N)c1ccc(N2CCCC(CC(=O)NCCC(=O)O)C2=O)cc1 (single isomer, unassigned; isomer b) [Example 34B, 3-[[[1-[4-(aminoiminomethyl)phenyl]-2-oxo-3-piperidinyl]acetyl]amino]propanoic acid, enantiomerically enriched isomer B]
- IC50 [2, 3]: 240 nM

Molecule: CC(CC(=O)O)NC(=O)CC1CCN(c2ccc(C(=N)N)cc2)C1=O (stereo not shown) [Example 10, 3-[[[-[4-(aminoiminomethyl)phenyl]-2-oxo-3-pyrrolidinyl]acetyl]amino]butanoic acid]
- IC50 ([1]; Homo sapiens, Platelet): 260 nM
- IC50 [2, 3]: 170 nM

Molecule: C=C[C@H](CC(=O)O)NC(=O)CC1CCN(c2ccc(C(=N)N)cc2)C1=O (single isomer, unassigned; isomer b) [Example 6, 3S-[[[1-[4-(aminoiminomethyl)phenyl]-2-oxo-3-pyrrolidinyl]acetyl]amino]-4-pentenoic acid, enantiomerically enriched isomer B]
- IC50 [1]: 850 nM
- IC50 [2]: 1600 nM

Molecule: C[C@H](CC(=O)O)NC(=O)NC1CCN(c2ccc(C(=N)N)cc2)C1=O (single isomer, unassigned; isomer b) [Example 45]
- IC50 [2, 3]: 39 nM

Molecule: CC(C)(C)C#CC(CC(=O)O)NC(=O)CC1CCCN(c2ccc(C(=N)N)cc2)C1=O (stereo not shown) [Example 26, 3-[[[1-[4-(aminoiminomethyl)phenyl]-2-oxo-3-piperidinyl]acetyl]amino]-6,6-dimethyl-4-heptynoic acid]
- IC50 [2, 3]: 590 nM

Molecule: N=C(N)c1ccc(N2CCC(NC(=O)NCCC(=O)O)C2=O)cc1 (single isomer, unassigned; isomer a) [Example 41, 3-[[[[1-[4-(aminoiminomethyl)phenyl]-2-oxo-3-pyrrolidinyl]amino]carbonyl]amino]propanoic acid trifluoroacetate. Enantiomerically Enriched Isomer A.]
- IC50 ([1]; Homo sapiens, Platelet): 150 nM
- inhibition at 1 µM ([2]; Canis lupus familiaris): 30%

Molecule: N=C(N)c1ccc(N2CCCC(CC(=O)NC(C#Cc3ccccc3)CC(=O)O)C2=O)cc1 (stereo not shown) [Example 28, 3-[[[1-[4-(aminoiminomethyl)phenyl]-2-oxo-3-piperidinyl]acetyl]amino]-5-phenyl-4-pentynoic acid.]
- IC50 ([1]; Homo sapiens, Platelet): 190 nM
- IC50 [2, 3]: 170 nM

Molecule: COc1ccc(C(CC(=O)O)NC(=O)CC2CCCN(c3ccc(C(=N)N)cc3)C2=O)cc1 (stereo not shown) [Example 34I, 3-[[[1-[4-(aminoiminomethyl)phenyl]-2-oxo-3-piperidinyl]acetyl]amino]-3-(4-methoxyphenyl)propanoic acid]
- IC50 [2, 3]: 180 nM

Molecule: N=C(N)c1ccc(N2CCC(NC(=O)NCCC(=O)O)C2=O)cc1 (stereo not shown) [Example 38, 3-[[[[1-[4-(aminoiminomethyl)phenyl]-2-oxo-3-pyrrolidinyl]amino]carbonyl]amino]propionic acid, trifluoroacetate.]
- IC50 [2, 3]: 125 nM

Molecule: N=C(N)c1ccc(N2CCC(NC(=O)NCCC(=O)O)C2=O)cc1 (single isomer, unassigned; isomer b) [Example 43, 3-[[[[1-[4-(aminoiminomethyl)phenyl]-2-oxo-3-pyrrolidinyl]amino]carbonyl]amino]propanoic acid trifluoroacetate. Enantiomerically Enriched Isomer B.]
- IC50 [2, 3]: 90 nM

Molecule: C[Si](C)(C)C#C[C@H](CC(=O)O)NC(=O)CC1CCCN(c2ccc(C(=N)N)cc2)C1=O (stereo partly drawn) [Example 22, 3S-[[[1-[4-(aminoiminomethyl)phenyl]-2-oxo-3-piperidinyl]acetyl]amino]-5-(trimethylsilyl)-4-pentynoic acid]
- IC50 [2, 3]: 180 nM

Molecule: C=C[C@H](CC(=O)O)NC(=O)CC1CCCN(c2ccc(C(=N)N)cc2)C1=O (single isomer, unassigned; isomer a) [Example 34J]
- inhibition at 1 µM ([2]; Canis lupus familiaris): 13%

Molecule: N=C(N)c1ccc(N2CCCC(CC(=O)NC(CC(=O)O)c3ccsc3)C2=O)cc1 (single isomer, unassigned; isomer b) [Example 34C, 3-[[[1-[4-(aminoiminomethyl)phenyl]-2-oxo-3-piperidinyl]acetyl]amino]-3-(3-thienyl)propanoic acid, enantiomerically enriched isomer B]
- IC50 [2, 3]: 160 nM

Molecule: N=C(N)c1ccc(N2CCCC(CC(=O)NC(CC(=O)O)c3ccoc3)C2=O)cc1 (single isomer, unassigned; isomer b) [Example 34E]
- IC50 [2, 3]: 70 nM

Molecule: C#CC(CC(=O)O)NC(=O)CC1CCCN(c2ccc(C(=N)N)cc2)C1=O (stereo not shown) [Example 24, 3-[[[1-[4-(aminoiminomethyl)phenyl]-2-oxo-3-piperidinyl]acetyl]amino]-4-pentynoic acid.]
- IC50 [2, 3]: 190 nM

Molecule: C=C[C@H](CC(=O)O)NC(=O)CC1CCCN(c2ccc(C(=N)N)cc2)C1=O (stereo partly drawn) [Example 34, 3(S)-[[[1-[4-(aminoiminomethyl)phenyl]-2-oxo-3-piperidinyl]acetyl]amino]-4-pentenoic acid.]
- IC50 [2, 3]: 120 nM

Molecule: C=C[C@H](CC(=O)O)NC(=O)CC1CCN(c2ccc(C(=N)N)cc2)C1=O (stereo partly drawn) [Example 2, 3(S)-[[[1-[4-(aminoiminomethyl)phenyl]-2-oxo-3-pyrrolidinyl]acetyl]amino]-4-pentenoic acid, monohydrochloride]
- IC50 [2, 3]: 72 nM

Molecule: N=C(N)c1ccc(N2CCCC(CC(=O)NC(CC(=O)O)c3ccco3)C2=O)cc1 (mixture of isomers) [Example 34G, 3-[[[1-[4-(aminoiminomethyl)phenyl]2-oxo-3-piperidinyl]acetyl]amino]-3-(2-furanyl]propanoic acid, diastereomers]
- IC50 [2, 3]: 190 nM
